Test results as given in patent US7625841B2, “Substituted thiene-3-ylsulphonylamino(thio)carbonyltriazolin(ethi)ones” (Bayer CropScience AG, priority 2001, dated 2009).

What was measured:
Type in all cases: in vivo
Bromus [1] = test: Pre-emergence test/greenhouse; settings: greenhouse, application rate 15 gai/ha, rated after three weeks, 0%=no effect, 100%=total destruction
Description: (§1) • Solvent: 5 parts by weight of acetone • Emulsifier: 1 part by weight of alkylaryl polyglycol ether
(§2) To produce a suitable preparation of active compound, 1 part by weight of active compound is mixed with the stated amount of solvent, the stated amount of emulsifier is added and the concetrate is diluted with water to the desired concentration.
(§3) Seeds of the test plants are sown in normal soil. After 24 hours, the soil is sprayed with the preparation of active compound such that the particular amount of active compound desired is applied per unit area. The concentration of active compound in the spray liquor is chosen such that the particular amount of active compound desired is applied in 1000 litres of water per hectare.
(§4) After three weeks, the degree of damage to the plants is rated in % damage in comparison to the development of the untreated control. The figures denote: • 0%=no effect (like untreated control) • 100%=total destruction

Polygonum = test: Pre-emergence test/greenhouse; settings: greenhouse, application rate 15 gai/ha, rated after three weeks, 0%=no effect, 100%=total destruction
Description: as §1, §2, §3, §4

soybeans = test: Pre-emergence test/greenhouse; settings: greenhouse, application rate 15 gai/ha, rated after three weeks, 0%=no effect, 100%=total destruction
Description: as §1, §2, §3, §4

Matricaria = test: Pre-emergence test/greenhouse; settings: greenhouse, application rate 15 gai/ha, rated after three weeks, 0%=no effect, 100%=total destruction; for pest or weed control at 15 g/ha: Matricaria, 504 h, read-out: degree of damage to the plants, Matricaria
Description: as §1, §2, §3, §4

Chenopodium = test: Pre-emergence test/greenhouse; settings: greenhouse, application rate 15 gai/ha, rated after three weeks, 0%=no effect, 100%=total destruction
Description: as §1, §2, §3, §4

maize = test: Pre-emergence test/greenhouse; settings: Zea mays, 504 h, greenhouse, application rate 15 gai/ha, rated after three weeks, 0%=no effect, 100%=total destruction, read-out: degree of damage to the plants, maize
Description: as §1, §2, §3, §4

Galium = test: Pre-emergence test/greenhouse; settings: greenhouse, application rate 15 gai/ha, rated after three weeks, 0%=no effect, 100%=total destruction
Description: as §1, §2, §3, §4

Amaranthus = test: Pre-emergence test/greenhouse; settings: greenhouse, application rate 15 gai/ha, rated after three weeks, 0%=no effect, 100%=total destruction
Description: as §1, §2, §3, §4

Setaria [2] = test: Pre-emergence test/greenhouse; settings: greenhouse, application rate 15 gai/ha, rated after three weeks, 0%=no effect, 100%=total destruction
Description: as §1, §2, §3, §4

Lolium [3] = test: Pre-emergence test/greenhouse; settings: greenhouse, application rate 15 gai/ha, rated after three weeks, 0%=no effect, 100%=total destruction; for pest or weed control at 15 g/ha: Lolium, 504 h, read-out: degree of damage to the plants, Lolium
Description: as §1, §2, §3, §4

Stellaria = test: Pre-emergence test/greenhouse; settings: greenhouse, application rate 15 gai/ha, rated after three weeks, 0%=no effect, 100%=total destruction; for pest or weed control at 15 g/ha: Stellaria, 504 h, read-out: degree of damage to the plants, Stellaria
Description: as §1, §2, §3, §4

Xanthium [4] = test: Pre-emergence test/greenhouse; settings: Xanthium, 504 h, greenhouse, application rate 15 gai/ha, rated after three weeks, 0%=no effect, 100%=total destruction, read-out: degree of damage to the plants, Xanthium
Description: as §1, §2, §3, §4

Alopecurus = test: Pre-emergence test/greenhouse; settings: greenhouse, application rate 15 gai/ha, rated after three weeks, 0%=no effect, 100%=total destruction
Description: as §1, §2, §3, §4

Avena fatua [5] = test: Pre-emergence test/greenhouse; settings: greenhouse, application rate 15 gai/ha, rated after three weeks, 0%=no effect, 100%=total destruction
Description: as §1, §2, §3, §4

Digitaria [6] = test: Pre-emergence test/greenhouse; settings: greenhouse, application rate 15 gai/ha, rated after three weeks, 0%=no effect, 100%=total destruction
Description: as §1, §2, §3, §4

wheat = test: Pre-emergence test/greenhouse; settings: Triticum aestivum, 504 h, greenhouse, application rate 15 gai/ha, rated after three weeks, 0%=no effect, 100%=total destruction, read-out: degree of damage to the plants, wheat
Description: as §1, §2, §3, §4

Solanum = test: Pre-emergence test/greenhouse; settings: greenhouse, application rate 15 gai/ha, rated after three weeks, 0%=no effect, 100%=total destruction
Description: as §1, §2, §3, §4

Bromus [7] = test: Post-emergence test/greenhouse; settings: greenhouse, application rate 15 gai/ha, rated after three weeks, 0%=no effect, 100%=total destruction
Description: as §1
(§5) To produce a suitable preparation of active compound, 1 part by weight of active compound is mixed with the stated amount of solvent, the stated amount of emulsifier is added and the concentrate is diluted with water to the desired concentration.
(§6) Test plants of a height of 5-15 cm are sprayed with the preparation of active compound such that the particular amounts of active compound desired are applied per unit area. The concentration of the spray liquor is chosen such that the particular amounts of active compound desired are applied in 1000 l of water/ha.
(§7) After three weeks, the degree of damage to the plants is rated in % damage in comparison to the development of the untreated control.
(§8) The figures denote: • 0%=no effect (like untreated control) • 100%=total destruction

Echinochloa = test: Post-emergence test/greenhouse; settings: greenhouse, application rate 15 gai/ha, rated after three weeks, 0%=no effect, 100%=total destruction
Description: as §1, §5, §6, §7, §8

Viola = test: Post-emergence test/greenhouse; settings: greenhouse, application rate 15 gai/ha, rated after three weeks, 0%=no effect, 100%=total destruction
Description: as §1, §5, §6, §7, §8

Setaria [8] = test: Post-emergence test/greenhouse; settings: greenhouse, application rate 15 gai/ha, rated after three weeks, 0%=no effect, 100%=total destruction
Description: as §1, §5, §6, §7, §8

Lolium [9] = test: Post-emergence test/greenhouse; settings: greenhouse, application rate 15 gai/ha, rated after three weeks, 0%=no effect, 100%=total destruction
Description: as §1, §5, §6, §7, §8

Xanthium [10] = test: Post-emergence test/greenhouse; settings: greenhouse, application rate 15 gai/ha, rated after three weeks, 0%=no effect, 100%=total destruction
Description: as §1, §5, §6, §7, §8

Avena fatua [11] = test: Post-emergence test/greenhouse; settings: greenhouse, application rate 15 gai/ha, rated after three weeks, 0%=no effect, 100%=total destruction
Description: as §1, §5, §6, §7, §8

Digitaria [12] = test: Post-emergence test/greenhouse; settings: greenhouse, application rate 15 gai/ha, rated after three weeks, 0%=no effect, 100%=total destruction
Description: as §1, §5, §6, §7, §8

[13] = system: crop plants, such as, for example, maize, soyabean and wheat; test: Pre-emergence test, summary for crop plants
Description: as §1, §2, §3, §4

[14] = system: crop plants such as, for example, maize, oilseed rape and wheat; test: Post-emergence test, summary for crop plants
Description: as §1, §5, §6, §7, §8

weeds [15] = test: Pre-emergence test, summary for weeds
Description: as §1, §2, §3, §4

weeds [16] = test: Post-emergence test, summary for weeds
Description: as §1, §5, §6, §7, §8

SMILES | degree of damage to the plants, Bromus (Bromus [1]) [%] | degree of damage to the plants, Polygonum (Polygonum) [%] | degree of damage to the plants, soybeans (soybeans) [%] | pest or weed control at 15 g/ha (Matricaria) [%] | degree of damage to the plants, Chenopodium (Chenopodium) [%] | plant injury at 15 g/ha (maize) [%] | degree of damage to the plants, Galium (Galium) [%] | degree of damage to the plants, Amaranthus (Amaranthus) [%] | degree of damage to the plants, Setaria (Setaria [2]) [%] | pest or weed control at 15 g/ha (Lolium [3]) [%] | pest or weed control at 15 g/ha (Stellaria) [%] | pest or weed control at 15 g/ha (Xanthium [4]) [%] | degree of damage to the plants, Alopecurus (Alopecurus) [%] | degree of damage to the plants, Avena fatua (Avena fatua [5]) [%] | degree of damage to the plants, Digitaria (Digitaria [6]) [%] | plant injury at 15 g/ha (wheat) [%] | degree of damage to the plants, Solanum (Solanum) [%] | degree of damage to the plants, Echinochloa (Echinochloa) [%] | degree of damage to the plants, Viola (Viola) [%] | degree of damage to the plants, Setaria (Setaria [8]) [%] | other results
COC(=O)c1csc(C)c1S(=O)(=O)NC(=O)n1nc(OC(C)C)n(C2CC2)c1=O [(C), methyl 4-[[[(4-cyclopropyl-4,5-dihydro-5-oxo-3-isopropoxy-1H-1,2,4-triazol-1-yl)-carbonyl]amino]sulfonyl]-5-methyl-3-thiophenecarboxylate, reference compound] | 70 | 60 | 0 | 80 | 40 | 0 | 70 | 80 | 50 | 50 | 80 | 0 | 0 | 50 | 20 | 0 |  |  |  |  | 
COC(=O)c1csc(C)c1S(=O)(=O)NC(=O)n1nc(C2CC2)n(C2CC2)c1=O [(D), methyl 4-[[[(3,4-dicyclopropyl-4,5-dihydro-5-oxo-1H-1,2,4-triazol-1-yl)carbonyl]-amino]sulfonyl]-5-methyl-3-thiophenecarboxylate, reference compound] | 10 | 10 | 0 | 10 | 0 | 20 | 0 | 80 | 10 | 20 | 60 | 0 | 0 | 70 | 20 | 0 | 80 |  |  |  | 
COC(=O)c1csc(C)c1S(=O)(=O)NC(=O)n1nc(C)n(C)c1=O [(E), methyl 4-[[[(4,5-dihydro-3,4-dimethyl-5-oxo-1H-1,2,4-triazol-1-yl)carbonyl]-amino]sulfonyl]-5-methyl-3-thiophenecarboxylate, reference compound] | 20 | 20 | 0 | 20 | 0 | 0 | 0 | 10 | 20 | 0 | 40 | 0 | 20 | 0 | 0 | 0 | 70 |  |  |  | 
CCc1nn(C(=O)NS(=O)(=O)c2c(C(=O)OC)csc2C)c(=O)n1C [(F), methyl 4-[[[(4,5-dihydro-3-ethyl-4-methyl-5-oxo-1H-1,2,4-triazol-1-yl)carbonyl]-amino]sulfonyl]-5-methyl-3-thiophenecarboxylate, reference compound] | 70 | 50 | 10 | 20 | 0 | 0 | 10 | 40 | 30 | 40 | 70 | 0 | 70 | 60 | 60 | 0 | 80 |  |  |  | 
CCc1nn(C(=O)NS(=O)(=O)c2c(C(=O)OC)csc2C)c(=O)n1C1CC1 [Example 47] |  | 90 |  |  |  |  |  | 100 | 95 |  |  |  |  | 95 |  |  |  | 95 | 100 | 90 | degree of damage to the plants, Bromus (Bromus [7]): 80%; degree of damage to the plants, Lolium (Lolium [9]): 100%; degree of damage to the plants, Xanthium (Xanthium [10]): 80%; degree of damage to the plants, Avena fatua (Avena fatua [11]): 95%; degree of damage to the plants, Digitaria (Digitaria [12]): 90%; tolerance by crop plants [13]: tolerated well by crop plants; degree of damage to the plants, Matricaria (Matricaria): 100%; degree of damage to the plants, Lolium (Lolium [3]): 80%; degree of damage to the plants, Stellaria (Stellaria): 100%; compatibility with crop plants compared with the known compounds (A) and (B) [14]: substantially better compatibility with crop plants; activity against weeds compared with the known compounds (A) to (G) (weeds [15]): considerably stronger activity against weeds; activity against weeds compared with the known compounds (A) and (B) (weeds [16]): considerably stronger activity against weeds
CCCc1nn(C(=O)NS(=O)(=O)c2c(C(=O)OC)csc2C)c(=O)n1C1CC1 [Example 48] |  | 95 |  |  |  |  |  | 100 |  |  |  |  |  | 95 |  |  |  | 95 | 95 | 80 | degree of damage to the plants, Lolium (Lolium [9]): 100%; degree of damage to the plants, Xanthium (Xanthium [10]): 90%; degree of damage to the plants, Avena fatua (Avena fatua [11]): 90%; degree of damage to the plants, Digitaria (Digitaria [12]): 90%; tolerance by crop plants [13]: tolerated well by crop plants; degree of damage to the plants, Matricaria (Matricaria): 95%; degree of damage to the plants, Lolium (Lolium [3]): 95%; degree of damage to the plants, Stellaria (Stellaria): 100%; compatibility with crop plants compared with the known compounds (A) and (B) [14]: substantially better compatibility with crop plants; activity against weeds compared with the known compounds (A) to (G) (weeds [15]): considerably stronger activity against weeds; activity against weeds compared with the known compounds (A) and (B) (weeds [16]): considerably stronger activity against weeds
